Results as given in publication PMC5286506 (Scientific Reports, 2017).
Where two headings read alike, the source gives them in different places.

Assays:
[1] = test system: pREJO.c/2864 T/F IMC; test: T/F IMC infection of TZM-bl cells, luciferase readout; assay type: cell-based, HIV-1; conditions: pREJO.c/2864, TZM-bl cells
Method: (§1) TZM-bl cells (1 × 10^4/well in a 100 μL volume) in 10% D-MEM growth medium containing DEAE-dextran (Sigma) at a final concentration of 7.5 μg/mL were then added to the plate. Assay controls included replicate wells of TZM-bl cells alone in HEC 0.25% (cell control) and TZM-bl cells with virus (virus control). Following 72 hours of incubation at 37 °C, 150 μL of culture medium were removed from each well and replaced with 100 μL of Bright-Glo luciferase reagent (Promega). After 2-minutes of incubation, 150 μL of the cell lysate were transferred to a 96-well white solid plate and luminescence was measured using a Victor Light 2030 luminometer (Perkin Elmer). The percentage of infection for each T/F strain was calculated by comparing the relative luminescence units (RLU) of the virus control wells after subtraction of the cell control RLU[44].
(§2) Figure 2 M48U1 in 0.25% HEC and tenofovir in 0.25% HEC each inhibited several laboratory strains and patient-derived HIV-1 isolates. Treatment with either 1 μM M48U1/0.25% (A) or 5 μM tenofovir/0.25% HEC (B) inhibited the replication of all tested laboratory and patient-derived strains. The HIV-1 strain tropism was determined with a sequencing analysis for the patient-derived strains. […] HIV-1 replication was monitored by the HIV-1 p24 ELISA assay using cell culture supernatants obtained on day 7 post-infection. […]

[2] = test system: HIV-1BaL; test: HIV-1BaL-infected cervicovaginal histoculture (EpiVaginal), proviral DNA qPCR; assay type: cell-based; conditions: day 4 post-infection, vs HEC-treated infected samples
Method: The EpiVaginal Tissue Model (VLC-100FT; MatTek Corporation, Ashland, MA, USA) was maintained in a 24-well plate according to the manufacturer’s instructions. […] Subsequently, the wells were challenged with HIV-1BaL (25 ng p24/tissue well) for 24 hours. Mock-infected 0.25% HEC-treated wells were used as negative control. The apical surface of each tissue was washed twice with PBS after incubation with HIV-1BaL and the same formulations were added on day 1 for 24 hours. The underlying media was changed every day, and cervicovaginal tissues were harvested on day 4 post-infection.
Total DNA was extracted and purified from the tissues using the QIAamp DNA Mini Kit (Qiagen, Hilden, Germany). Proviral DNA was quantified by real-time quantitative PCR assay using the HIV-1 DNA qPCR kit (Diatheva, Fano, Italy) based on SYBR Green chemistry as indicated by the manufacturer. […] Total DNA amount was determined by spectrophotometry. The amplification was carried out as follows: an initial cycle of denaturation step at 95 °C for 15 minutes, followed by 10 cycles of denaturation at 95 °C for 15 seconds and annealing/extension at 68 °C for 35 seconds, and a final 35 cycles of denaturation at 95 °C for 15 seconds and annealing/extension with fluorescence acquisition at 68 °C for 35 seconds. […]

[3] = test system: HIV-1BaL, HIV-1IIIb, HIV-1ADA, HIV-1RU132, HIV-1ARV-2, HIV-1CBL4; test: Laboratory HIV-1 strains in activated PBMCs, p24 ELISA on day 7; assay type: cell-based; conditions: 1 μM M48U1 or 5 μM tenofovir in 0.25% HEC; p < 0.05
Method: (§3) Mock-infected PBMCs were used as the negative control.
(§4) Figure 2 M48U1 in 0.25% HEC and tenofovir in 0.25% HEC each inhibited several laboratory strains and patient-derived HIV-1 isolates. Treatment with either 1 μM M48U1/0.25% (A) or 5 μM tenofovir/0.25% HEC (B) inhibited the replication of all tested laboratory and patient-derived strains. The HIV-1 strain tropism was determined with a sequencing analysis for the patient-derived strains. The combination of the two HIV-1 drugs inhibited HIV-1 replication independent of the HIV-1 strain tropism. HIV-1 replication was monitored by the HIV-1 p24 ELISA assay using cell culture supernatants obtained on day 7 post-infection. […] Three experiments in triplicate were performed. Analysis of antiretroviral activity of 1 μM M48U1 in 0.25% HEC (C) or 5 μM tenofovir in 0.25% HEC (D) performed in TZM-bl cells infected with pREJO.c/2864 and pTHRO.c/2626 T/F IMCs. […] Each sample was performed in triplicate and was repeated in three independent experiments.

[4] = test system: X4-tropic HIV-1IIIb; test: HIV-1IIIb infection of activated PBMCs, HIV-1 gag p24 ELISA on day 7; assay type: cell-based
Method: as §3
(§5) The antiviral activity of each drug, M48U1 and tenofovir, formulated in 0.25% HEC hydrogel was determined in an activated PBMC model. […] This mixture was added to PBMCs activated with IL-2 and PHA for a two-hour incubation at 37 °C. To evaluate the antiviral effect of M48U1, the level of HIV-1 gag p24 protein in the culture supernatant was determined at seven days post-infection using an ELISA. A significant decrease (p < 0.05; Mann Whitney test) in the HIV-1 p24 level was found (Fig. 1).
(§6) Figure 1 M48U1 and tenofovir formulated in 0.25% HEC each inhibited the replication of both R5-tropic HIV-1BaL and X4-tropic HIV-1IIIb in activated PBMCs. […] After this incubation, these solutions were used to resuspend activated PBMCs for 2 hours at 37 °C. HIV-1 replication was monitored by a HIV-1 p24 ELISA assay on the cell culture supernatants performed on day 7 post-infection. […] Three experiments in triplicate were performed.

[5] = test system: HIV-1 subtype B and C isolates (HIV-1AMBR5N, HIV-1FBR5N, HIV-1SLR5N, HIV-1ARR5X4, HIV-1CSBX4); test: Patient-derived HIV-1 isolates in activated PBMCs, p24 ELISA on day 7; assay type: cell-based; conditions: 1 μM M48U1 (five isolates) or 5 μM tenofovir (three isolates from naïve patients) in 0.25% HEC; p < 0.05
Method: as §3, §4

[6] = test system: EpiVaginal tissue model; conditions: human, 20 μM
Method: (§7) At the end of the incubation at 37 °C, the hydrogel was discarded and the cervicovaginal cultures were washed with PBS to remove any residual hydrogel. The cervicovaginal cultures were analyzed using the MTT kit protocol (MatTek Corporation). Cell cultures incubated with sterile distilled water were employed as a negative control. Triton X-100 (1%)-treated cultures were used as the positive control. The LDH cytotoxicity detection kit (TaKaRa Bio Inc, Japan) was used to detect LDH release from the tissues according to the manufacturer’s protocols. […] After incubation, the concentration of IL-1α in the culture medium was measured using the IL-1α ELISA Kit, according to the manufacturer’s instructions (Bender Medsystem, Wien, Austria). The concentration of IL-1α was calculated by interpolation from a standard calibration curve.

[7] = test system: HSV-2; set-up: method as in PMID 20643915, PMID 22018238, PMID 20709216; conditions: CAPRISA 004 trial; cited from earlier work
[8] = test system: pTHRO.c/2626 T/F IMC; test: T/F IMC infection of TZM-bl cells, luciferase readout; assay type: cell-based, HIV-1; conditions: pTHRO.c/2626, TZM-bl cells
Method: as §1, §2

[9] = MTT tissue viability in the EpiVaginal tissue model; assay type: cell-based; conditions: human, EpiVaginal tissue model (cervicovaginal cultures), 20 μM tenofovir and/or 6.7 μM M48U1 in 0.25% HEC
Method: as §7

[10] = in vitro; conditions: human, activated PBMCs
[11] = test system: R5-tropic HIV-1BaL; test: HIV-1BaL infection of activated PBMCs, HIV-1 gag p24 ELISA on day 7; assay type: cell-based
Method: as §3, §5, §6

[12] = 1 μM M48U1 or 5 μM tenofovir in 0.25% HEC
[13] = 6.7 μM M48U1 or 20 μM tenofovir in 0.25% HEC

C[C@H](Cn1cnc2c(N)ncnc21)OCP(=O)(O)O [tenofovir]
reduction in viral replication [1, 12]: 86.8% | reduction in viral replication [1, 13]: 95% | decrease in the amount of proviral HIV-1 DNA (folds of inhibition, mean) ([2]; 0.67 μM M48U1, 2 μM tenofovir or both in 0.25% HEC): 11 fold | decrease in the amount of proviral HIV-1 DNA (folds of inhibition, mean) ([2]; 6.7 μM M48U1, 20 μM tenofovir or both in 0.25% HEC): ~45 fold | replication of laboratory HIV-1 strains (p24 in cell supernatant) [3]: suppressed the replication of all HIV-1 strains tested | inhibition of HIV-1IIIb replication [4, 12]: over 90% | IC50 ([4]; Human immunodeficiency virus 1, PBMC, 168 h, HIV-1IIIb, activated PBMCs, drug in 0.25% HEC, p24 day 7 post-infection): 1080 nM | infection of PBMCs with patient-derived HIV-1 subtype B and C isolates [5]: inhibited viral replication in all three cases | LDH release (Abs) ([6]; 1 h): 0.207 ± 0.06 Abs | LDH release (Abs) ([6]; 4 h): 0.381 ± 0.05 Abs | LDH release (Abs) ([6]; 18 h): 0.922 ± 0.2 Abs | LDH release (Abs) ([6]; 96 h): 1.498 ± 0.13 Abs | decrease of HSV-2 infections [7]: 51% | reduction in viral replication [8, 12]: 78% | reduction in viral replication [8, 13]: 93% | viability at 1 h, 20 μM ([9]; 1 hour): 95% | viability at 4 h, 20 μM ([9]; 4 hours): 96% | viability at 18 h, 20 μM ([9]; 18 hours): 88% | viability at 96 h, 20 μM ([9]; 96 hours): 104% | CC50 at 7 days [10]: > 20000 nM | inhibition of HIV-1BaL replication [11, 12]: over 90% | IC50 ([11]; Human immunodeficiency virus 1, PBMC, 168 h, HIV-1BaL, activated PBMCs, drug in 0.25% HEC, p24 day 7 post-infection): 1220 nM
